Source: patent publication US4647563A, “Heterocyclic compounds” (Boehringer Ingelheim KG, priority 1978, dated 1987)
Read-outs that look alike come from different tables or passages of the source.

Legend:
[1] = tested on: acetylcholine bronchospasm; assay: Bronchospasmolysis: influence on acetylcholine bronchospasm in guinea pigs under urethane anaesthesia, body plethysmography; assay type: in vivo; settings: Cavia porcellus
Description: 1. Bronchospasmolysis The activity was tested on guinea pigs under urethane anaesthesia. Body plethysmography was used to determine the influence on acetylcholine bronchospasm after intravenous and oral application.

[2] = Acute toxicity, LD50 in mice; settings: mouse, in vivo
Uterine relaxation = Uterine relaxation on anesthetized rats; assay type: in vivo; settings: Rattus norvegicus, iv, read-out: Uterine relaxation ED50 i.v.
Description: (§1) Uterine relaxation was investigated on anesthetized rats. The intravenous ED50 of uterine relaxation was determined in ug/kg (50% of the tested animals react) and the (undesirable) increase in heart rate at the ED50 value was also determined. The comparison compound was fenoterol.

heart rate = assay: Increase in heart rate at the ED50 of uterine relaxation on anesthetized rats; assay type: in vivo
Description: as §1

[3] = intravenous, read-out: Broncholysis ED50 intravenous
[4] = oral, read-out: Broncholysis ED50 oral
[5] = anesthetized rats, 50% of the tested animals react

Compound: CC(C)(CCn1cnc2ccccc21)NCC(O)c1ccc(O)cc1F (stereo not drawn) [Example 6, 1-(2-Fluoro-4-hydroxy-phenyl)-2-[4-(1-benzimidazolyl)-2-methyl-2-butylamino]-ethanol]
- ED50 [1, 3]: 3.6 µg/kg
- ED50 [1, 4]: 7 µg/kg
- LD50 ([2]; iv): 29000 µg/kg
- LD50 ([2]; po): 300000 µg/kg

Compound: CC(Cc1ccc(O)cc1)NCC(O)c1cc(O)cc(O)c1 (stereo not drawn) [Fenoterol, reference compound]
- ED50 (Uterine relaxation): 0.45 µg/kg
- Increase in heart rate in comparison with fenoterol (heart rate; at the ED50 of uterine relaxation, fenoterol = 1, rats): 1
- Increase in heart rate (beats per min.) (heart rate; at the ED50 of uterine relaxation, i.v., anesthetized rats): 36 beats per min.

Compound: CC(C)(C)NCC(O)c1ccc(O)c(CO)c1 (stereo not drawn) [Salbutamol, reference compound]
- ED50 [1, 3]: 9.2 µg/kg
- ED50 [1, 4]: 1000 µg/kg

Compound: Cc1c(C(O)CNC(C)(C)CCn2nnc3ccccc32)ccc(O)c1O (stereo not drawn) [Table II, 15th compound]
- ED50 (Uterine relaxation; [5]): 0.44 µg/kg
- Increase in heart rate in comparison with fenoterol (heart rate; rat, in vivo): 2/3
- Increase in heart rate (beats per min.) (heart rate; rat, in vivo, iv): 23 beats per min.

Compound: CC(=O)Nc1cc(C(O)CNC(C)(C)CCn2cnc3ccccc32)ccc1O (stereo not drawn) [Table II, 16th compound]
- ED50 [1, 3]: 1.8 µg/kg
- ED50 [1, 4]: 66 µg/kg

Compound: CC(C)(CCn1cnc2ccccc21)NCC(O)c1ccc(O)cc1Cl (stereo not drawn) [Table II, 21st compound]
- ED50 [1, 3]: 7.6 µg/kg
- ED50 [1, 4]: 190 µg/kg

Compound: CC(C)(CCCn1cnc2ccccc21)NCC(O)c1ccc(O)c(NS(C)(=O)=O)c1 (stereo not drawn) [Table II, 24th compound]
- ED50 (Uterine relaxation; [5]): 0.5 µg/kg
- Increase in heart rate in comparison with fenoterol (heart rate; rat, in vivo): 1/2
- Increase in heart rate (beats per min.) (heart rate; rat, in vivo, iv): 18 beats per min.

Compound: CC(C)(CCn1cnc2ccccc21)NCC(O)c1ccc(O)cc1 (stereo not drawn) [Table III 10th compound]
- ED50 (Uterine relaxation; [5]): 0.82 µg/kg
- Increase in heart rate in comparison with fenoterol (heart rate; rat, in vivo): 1/2
- Increase in heart rate (beats per min.) (heart rate; rat, in vivo, iv): 19 beats per min.

Compound: CC(C)(CCn1cnc2ccccc21)NCC(O)c1ccc(O)c(NC(N)=O)c1 (stereo not drawn) [Table III, 15th compound]
- ED50 [1, 3]: 0.9 µg/kg
- ED50 [1, 4]: 14 µg/kg

Compound: CC(C)(CCn1cnc2ccccc21)NCC(O)c1ccc(O)c(CO)c1 (stereo not drawn) [Table III, 16th compound]
- ED50 [1, 3]: 1.2 µg/kg
- ED50 [1, 4]: 7.6 µg/kg

Compound: CC(C)(CCn1cnc2ccccc21)NCC(O)c1ccc(O)c2c1OCC(=O)N2 (stereo not drawn) [Table III, 24th compound]
- ED50 [1, 4]: 5.4 µg/kg
